According to publication PMC4077696 (PLoS Biology, 2014):
Where a name gives a salt, the structure may show the parent alone.

Columns and labels:
PvPMV = PvPMV (Plasmodium vivax, UniProt A5K302); assay: PEXEL cleavage assay with immunopurified PvPMVHA and fluorogenic KAHRP PEXEL peptide; assay type: biochemical
Protocol: To investigate PvPMVHA activity, we affinity purified it, as well as the PfPMVHA control, using anti-HA agarose, as previously described [13],[18].
PMV-agarose was prepared by adding α-HA-agarose (Sapphire Bioscience) to parasite lysates, prepared by sonication in 1% Triton X-100/PBS, for 1 h before extensive washing in same [12],[13]. […] Samples were excited at 340 nm and fluorescence emission measured at 492 nm using an Envision fluorescence plate reader (Perkin-Elmer) heated to 37°C for 150 min. Samples were shaken between measurements.

[1] = test system: EXP2 secretion in P. falciparum–infected erythrocytes; assay: EXP2 secretion to the parasitophorous vacuole membrane; assay type: cell-based, Plasmodium falciparum; settings: 20 or 50 µM, 13 h
Protocol: (§1) For quantification of events in cells infected with parasites expressing Hyp8-GFP, highly synchronous ring-stage parasites engineered to express Hyp8-GFP from the CRT promoter were obtained by incubation of erythrocytes with viable merozoites for 15 min [47] and treated with 20 or 50 µM 916 30 min postinvasion for 13 h (until Hyp8-GFP expression from the CRT promoter had occurred for 1 h). Smears were fixed in 90∶10 acetone∶methanol, labeled with anti-GFP and anti-EXP2 antibodies, and Z-stacks captured on a Deltavision Elite microscope using a 100× objective. Over 40 Z-stacks per condition were imaged using the same exposure settings to allow quantitative analysis between groups.
The EXP2 signal was measured by masking the infected cell using a watershed transform on the summed and filtered red signal, seeded by the DAPI-positive parasite.

[2] = test system: Hyp8-GFP export in P. falciparum–infected erythrocytes; assay: Quantification of Hyp8-GFP export and Maurer's clefts by immunofluorescence microscopy; assay type: cell-based, Plasmodium falciparum
Protocol: as §1
A parasite mask was generated by combining the signals from the maximum intensity projections of the nuclear (DAPI) and parasitophorous vacuole membrane (EXP2) images and setting a manual threshold. A whole infected erythrocyte mask was produced by manually tracing the cell boundary using the DIC image. Average GFP intensity measurements were determined on masked summed intensity projections of the GFP images using MetaMorph Image Analysis suite (Molecular Devices, USA). Ratios of the average intensity measurements of GFP inside the parasite (inside EXP2) versus exported to the erythrocyte (outside EXP2) were determined.
Clefts were counted using ImageJ's “Find Maxima” function to detect local maxima in the green signal within the masked cell region.

PvPMV, sequence (A5K302 35-536): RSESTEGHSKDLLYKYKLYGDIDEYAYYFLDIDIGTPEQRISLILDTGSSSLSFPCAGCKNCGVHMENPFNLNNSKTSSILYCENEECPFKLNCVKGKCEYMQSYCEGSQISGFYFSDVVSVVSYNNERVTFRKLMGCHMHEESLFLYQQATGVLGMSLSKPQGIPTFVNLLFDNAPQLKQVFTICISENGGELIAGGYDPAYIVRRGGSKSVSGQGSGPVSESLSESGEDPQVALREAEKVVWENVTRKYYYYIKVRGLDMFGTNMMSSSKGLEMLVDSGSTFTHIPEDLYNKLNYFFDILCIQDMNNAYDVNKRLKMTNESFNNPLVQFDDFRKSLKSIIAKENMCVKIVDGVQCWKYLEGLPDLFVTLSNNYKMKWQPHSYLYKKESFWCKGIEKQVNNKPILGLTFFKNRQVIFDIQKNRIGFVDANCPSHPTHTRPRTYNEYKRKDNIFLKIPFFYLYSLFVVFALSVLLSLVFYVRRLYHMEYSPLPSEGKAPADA

| Structure (SMILES) | Activity against PvPMVHA, in words (PvPMV) | IC50 (PvPMV) [nM] | EXP2 signal at the parasitophorous vacuole membrane, in words [1] | Nonexported Hyp8-GFP signal inside EXP2, in words ([2]; 20 or 50 µM, 13 h) | Hyp8-GFP in Maurer's clefts (exported), in words ([2]; 20 or 50 µM, 13 h from 30 min postinvasion) | Reduction of mean number of GFP-positive Maurer's clefts ([2]; compared to DMSO) |
| --- | --- | --- | --- | --- | --- | --- |
| CC[C@H](C)[C@H](NC(=O)[C@@H](NC(=O)[C@H](CCCNC(=N)N)NS(=O)(=O)Cc1ccccc1)C(C)C)[C@@H](O)CC(=O)NCCc1ccccc1 [compound 025, PhCH2SO2Arg-Val-AHMHpA-NH(CH2)2Ph . TFA] | weak activity | 1770 |  |  |  |  |
| CC(C)C[C@H](NC(=O)[C@@H](NC(=O)[C@H](CCCNC(=N)N)NS(=O)(=O)Cc1ccccc1)C(C)C)[C@@H](O)CC(=O)NCCc1ccccc1 [compound 916, PhCH2SO2-Arg(NH2)-Val-Sta-NH(CH2)2Ph .TFA] |  |  | no statistical difference | small but significant increase in nonexported GFP signal | dose-dependent decrease of Hyp8-GFP in MCs | up to 39% |
